According to article PMC11748363, “Antimicrobial and Antiproliferative Properties of 2‐Phenyl‐N‐(Pyridin‐2‐yl)acetamides” (Chemical Biology & Drug Design, 2025):
In brackets after ≈: the same amount, converted by molar mass. Like-named read-outs stand apart in the source and are kept apart here.

Columns and labels:
[1] = test system: Candida albicans CCM 8320, ATCC 24433; assay: Antifungal microdilution broth MIC, CA
[2] = test system: Escherichia coli CCM 3954, ATCC 25922; assay: Antibacterial microdilution broth MIC, EC; format: cell-based
[3] = test system: Aspergillus flavus CCM 8363; assay: Antifungal microdilution broth MIC, AFla
[4] = test system: Staphylococcus epidermidis CCM 4418, ATCC 12228; assay: Antibacterial microdilution broth MIC, SE; format: cell-based
[5] = test system: Staphylococcus aureus CCM 4223, ATCC 29213; assay: Antibacterial microdilution broth MIC, SA; format: cell-based; conditions: Staphylococcus aureus
[6] = test system: Mycolicibacterium aurum DSM 43999; assay: Antimycobacterial microdilution broth MIC (resazurin), M. aurum; format: cell-based; conditions: DSM43999, read-out: MIC M. aurum
[7] = test system: Candida tropicalis CCM 8264, ATCC 750; assay: Antifungal microdilution broth MIC, CT
[8] = test system: Enterococcus faecalis CCM 4224, ATCC 29212; assay: Antibacterial microdilution broth MIC, EF; format: cell-based
[9] = test system: Trichophyton interdigitale CCM 8377, ATCC 9533; assay: Antifungal microdilution broth MIC, TI; conditions: Trichophyton interdigitale
[10] = test system: Pseudomonas aeruginosa CCM 3955, ATCC 27853; assay: Antibacterial microdilution broth MIC, PA; format: cell-based
[11] = test system: Mycolicibacterium smegmatis DSM 43465; assay: Antimycobacterial microdilution broth MIC (resazurin), M. smegmatis; format: cell-based; conditions: DSM43465, read-out: MIC M. smegmatis
[12] = test system: Mycobacterium tuberculosis H37Ra; assay: Antimycobacterial microdilution broth MIC (resazurin), Mtb H37Ra; format: cell-based; conditions: for MIC: Mycobacterium tuberculosis, H37RA, read-out: MIC Mtb H37Ra; for SI (selectivity index): SI = HepG2 IC50 (μM)/MIC MtbH37Ra (μM), calculated for compounds with MIC ≤ 31.25 μg/mL
[13] = test system: Lichtheimia corymbifera CCM 8077; assay: Antifungal microdilution broth MIC, LC
[14] = test system: Staphylococcus aureus subsp. aureus CCM 4750, ATCC 43300 (MRSA); assay: Antibacterial microdilution broth MIC, MRSA; format: cell-based; conditions: Staphylococcus aureus
[15] = test system: Acinetobacter baumannii DSM 30007, ATCC 19606; assay: Antibacterial microdilution broth MIC, ACI; format: cell-based
[16] = test system: Klebsiella pneumoniae CCM 4415, ATCC 10031; assay: Antibacterial microdilution broth MIC, KP
[17] = test system: Candida krusei CCM 8271, ATCC 6258; assay: Antifungal microdilution broth MIC, CK; conditions: Pichia kudriavzevii
HepG2 cell line = assay: Cytotoxicity CellTiter 96, HepG2; format: cell-based, human; conditions: Homo sapiens, HepG2, 24 h, 24 h incubation; ^c compound precipitated in the testing medium; ^d over the limit of tested concentrations
Protocol: The cytotoxicity of final compounds was determined in human hepatocellular carcinoma cell line HepG2.
Cytotoxicity determination
Human hepatocellular liver carcinoma cell line HepG2 purchased from Health Protection Agency Culture Collections (ECACC, Salisbury, UK) was cultured in MEM (Minimum Essentials Eagle Medium, Sigma–Aldrich) supplemented with 10% fetal bovine serum (PAA Laboratories, Pasching, Austria), 1% L-glutamine solution (Sigma–Aldrich) and non-essential amino acid solution (Sigma–Aldrich) in a humidified atmosphere containing 5% CO2 at 37 °C. For subculturing, the cells were harvested after trypsin/EDTA (Sigma–Aldrich) treatment at 37 °C. To evaluate cytotoxicity, the cells treated with the tested substances were used as experimental groups whereas untreated HepG2 cells served as controls. The cells were seeded in density 10,000 cells per well in a 96 well plate. The next day the cells were treated with each of the tested substances dissolved in DMSO. The tested substances were
in triplicates according to their solubility. Simultaneously, the controls representing 100% cell viability, 0% cell viability (the cells treated with 10% DMSO), no cell control and vehiculum controls were also
the reagent from the kit CellTiter 96 AQueous One Solution Cell Proliferation Assay (CellTiter 96; PROMEGA, Fitchburg, USA) was added. After 2h incubation at 37 °C, absorbance of samples was recorded at 490 nm (TECAN, Infinita M200, Austria). A standard toxicological parameter IC50 was calculated by nonlinear regression from a semilogarithmic plot of incubation concentration versus percentage of absorbance relative to untre ated controls using GraphPad Prism 8 software.

[18] = test system: Candida parapsilosis CCM 8260, ATCC 22019; assay: Antifungal microdilution broth MIC, CP; conditions: Lodderomyces parapsilosis
[19] = test system: Aspergillus fumigatus ATCC 204305; assay: Antifungal microdilution broth MIC, AF
[20] = CCM8363, 24 h, read-out: MIC AFla 24h
[21] = CCM8363, 48 h, read-out: MIC AFla 48h
[22] = CCM8077, 24 h, read-out: MIC LC 24h
[23] = CCM8077, 48 h, read-out: MIC LC 48h
[24] = ATCC204305, 24 h, read-out: MIC AF 24h
[25] = ATCC204305, 48 h, read-out: MIC AF 48h

SMILES	MIC ([1]; 24 h, read-out: MIC CA 24h)	MIC ([1]; 48 h, read-out: MIC CA 48h)	MIC ([2]; 24 h, read-out: MIC EC 24h)	MIC ([2]; 48 h, read-out: MIC EC 48h)	MIC [3, 20]	MIC [3, 21]	MIC ([4]; 24 h, read-out: MIC SE 24h)	MIC ([4]; 48 h, read-out: MIC SE 48h)	MIC ([5]; 24 h, read-out: MIC SA 24h)	MIC ([5]; 48 h, read-out: MIC SA 48h)	MIC [6]	MIC ([7]; 24 h, read-out: MIC CT 24h)	MIC ([7]; 48 h, read-out: MIC CT 48h)	MIC ([8]; 24 h, read-out: MIC EF 24h)	MIC ([8]; 48 h, read-out: MIC EF 48h)	MIC ([9]; 72 h, read-out: MIC TI 72h)	MIC ([9]; 120 h, read-out: MIC TI 120h)	MIC ([10]; 24 h, read-out: MIC PA 24h)	MIC ([10]; 48 h, read-out: MIC PA 48h)	MIC [11]	also measured
O=C(Cc1ccccc1Cl)Nc1cccc(Cl)n1 [Compound 15, 2-(2-chlorophenyl)-N-(6-chloropyridin-2-yl)acetamide]	> 500 µM	> 500 µM	> 500 µM	> 500 µM	> 500 µM	> 500 µM	> 500 µM	> 500 µM	> 500 µM	> 500 µM	250 µg/mL (≈ 889 µM)	> 500 µM	> 500 µM	> 500 µM	> 500 µM	500 µM (≈ 141 µg/mL)	500 µM (≈ 141 µg/mL)	> 500 µM	> 500 µM	> 500 µg/mL	MIC ([12]; Calculated from MIC (μg/mL)): 111 µM; MIC [12]: 31.2 µg/mL; SI (selectivity index) [12]: > 0.9; MIC [13, 22]: > 500 µM; MIC [13, 23]: > 500 µM; MIC ([14]; 24 h, read-out: MIC MRSA 24h): > 500 µM; MIC ([14]; 48 h, read-out: MIC MRSA 48h): > 500 µM; MIC ([15]; 24 h, read-out: MIC ACI 24h): > 500 µM; MIC ([15]; 48 h, read-out: MIC ACI 48h): > 500 µM; MIC KP 24h [16]: > 500 µM; MIC KP 48h [16]: > 500 µM; MIC ([17]; 24 h, read-out: MIC CK 24h): 500 µM (≈ 141 µg/mL); MIC ([17]; 48 h, read-out: MIC CK 48h): 500 µM (≈ 141 µg/mL); IC50 (HepG2 cell line): > 100 µM; MIC ([18]; 24 h, read-out: MIC CP 24h): > 500 µM; MIC ([18]; 48 h, read-out: MIC CP 48h): > 500 µM; MIC [19, 24]: > 500 µM; MIC [19, 25]: > 500 µM
O=C(Cc1cccc(Cl)c1)Nc1ccccn1 [Compound 16, 2-(3-chlorophenyl)-N-(pyridin-2-yl)acetamide]	> 500 µM	> 500 µM	> 500 µM	> 500 µM	> 500 µM	> 500 µM	125 µM (≈ 30.8 µg/mL)	250 µM (≈ 61.7 µg/mL)	500 µM (≈ 123 µg/mL)	500 µM (≈ 123 µg/mL)	250 µg/mL (≈ 1010 µM)	> 500 µM	> 500 µM	> 500 µM	> 500 µM	500 µM (≈ 123 µg/mL)	500 µM (≈ 123 µg/mL)	> 500 µM	> 500 µM	> 500 µg/mL	MIC ([12]; Calculated from MIC (μg/mL)): 253 µM; MIC [12]: 62.5 µg/mL; MIC [13, 22]: > 500 µM; MIC [13, 23]: > 500 µM; MIC ([14]; 24 h, read-out: MIC MRSA 24h): > 500 µM; MIC ([14]; 48 h, read-out: MIC MRSA 48h): > 500 µM; MIC ([15]; 24 h, read-out: MIC ACI 24h): > 500 µM; MIC ([15]; 48 h, read-out: MIC ACI 48h): > 500 µM; MIC KP 24h [16]: > 500 µM; MIC KP 48h [16]: > 500 µM; MIC ([17]; 24 h, read-out: MIC CK 24h): > 500 µM; MIC ([17]; 48 h, read-out: MIC CK 48h): > 500 µM; IC50 (HepG2 cell line): > 250 µM; MIC ([18]; 24 h, read-out: MIC CP 24h): > 500 µM; MIC ([18]; 48 h, read-out: MIC CP 48h): > 500 µM; MIC [19, 24]: > 500 µM; MIC [19, 25]: > 500 µM
O=C(Cc1cccc(Cl)c1)Nc1cccc(Cl)n1 [Compound 18]	> 500 µM	> 500 µM	> 500 µM	> 500 µM	> 500 µM	> 500 µM	> 500 µM	> 500 µM	> 500 µM	> 500 µM	62.5 µg/mL (≈ 222 µM)	> 500 µM	> 500 µM	> 500 µM	> 500 µM	500 µM (≈ 141 µg/mL)	500 µM (≈ 141 µg/mL)	> 500 µM	> 500 µM	> 500 µg/mL	MIC ([12]; Calculated from MIC (μg/mL)): 55.6 µM; MIC [12]: 15.6 µg/mL; SI (selectivity index) [12]: > 1.8; MIC [13, 22]: > 500 µM; MIC [13, 23]: > 500 µM; MIC ([14]; 24 h, read-out: MIC MRSA 24h): > 500 µM; MIC ([14]; 48 h, read-out: MIC MRSA 48h): > 500 µM; MIC ([15]; 24 h, read-out: MIC ACI 24h): > 500 µM; MIC ([15]; 48 h, read-out: MIC ACI 48h): > 500 µM; MIC KP 24h [16]: > 500 µM; MIC KP 48h [16]: > 500 µM; MIC ([17]; 24 h, read-out: MIC CK 24h): > 500 µM; MIC ([17]; 48 h, read-out: MIC CK 48h): > 500 µM; IC50 (HepG2 cell line): > 100 µM; MIC ([18]; 24 h, read-out: MIC CP 24h): > 500 µM; MIC ([18]; 48 h, read-out: MIC CP 48h): > 500 µM; MIC [19, 24]: > 500 µM; MIC [19, 25]: > 500 µM
